Data set [1] is described as follows: Fed-fasted pharmacokinetics and relative oral bioavailability of compound 1 HCl salt, micronized formulation (previously determined). The following applies: human, in vivo. From the text:
The fed-fasted pharmacokinetic data were collected using a “normal fat” meal consisting of toast with 1 pat of butter, a banana, 2% milk, apple juice, and Honey Nut Cheerios®, where the meal has about 501 calories with 99 calories from fat, 346 calories from carbohydrates, and 56 calories from protein; and using a “high fat” meal consisting of 2 eggs fried in butter, 2 strips of bacon, 2 slices of toast with butter, 4 ounces of hash brown potatoes and 8 ounces of whole milk, where the meal has about 1,000 calories with 500-600 calories from fat, 250 calories from carbohydrates, and 150 calories from protein.
The relative oral bioavailability of compound 1 (HCl salt) has been previously determined in various fed and fasted states in a micronized formulation. This micronized formulation included the following for a 100 mg dose in a #1 HPMC (white opaque) capsule: compound 1 HCl micronized (100.00 mg), Lactose Fast Flo® Fast Flo® composed of a spray-dried mixture of crystalline and amorphous lactose monohydrate (184.80 mg); sodium starch glycolate (19.20 mg); polysorbate 80 (14.40 mg); purified water (used as the granulating fluid and was removed during processing) (QS); and magnesium stearate (1.60 mg), where the resultant fill weight was 320.00 mg. […]

The nature of data set [2]: Supersaturation dissolution kinetics of hot melt extrusion formulations. Type of data set: physicochemical. The following applies: processing conditions na. How it is done:
Supersaturation dissolution kinetics provides valuable information regarding the performance of different matrix polymers in combination with an active agent. In particular, such studies could provide insight on which formulations could provide enhanced bioavailability. Accordingly, dissolution studies were conducted on the following three HME formulations: Kollidon® VA 64 (Copovidone), HPMCAS-MF (Hypromellose Acetate Succinate), and Kollidon® K30 (Povidone, PVP).
Briefly, the target concentration of the dissolution sample solution was 1.1 mg/mL, or ten times the estimated sink dissolution sample solution concentration produced by a 100 mg dose when dissolved in 900 mL of dissolution media. Triplicate preparations of about 10 mg of extrudate (2 mg of compound 1 in the three HME formulations) were transferred into separate micro-centrifuge tubes. About 1.8 mL of dissolution media was preheated to 37° C. and added to each tube, where the tube was then placed into an incubator shaker at 37° C. and 250 rpm. Samples were centrifuged at 13,000 rpm for one minute, and 25 μL aliquots of the clear supernatant were transferred into HPLC vials and diluted with 1.0 mL of HPLC mobile phase (30%/70% of pH 6.6 buffer/acetonitrile) at 10′ (minutes), 20′, 40′, 1 hr (hour), 1.5 hrs, 2 hrs, 4 hrs, and 24 hrs. An isocratic HPLC method was applied for quantitation against a five point calibration curve in the range of 5.5-220 μg/mL (C18, 5 μm, 4.6×150 mm column, and UV 216 nm detection). The HPLC sample solution target concentration was 27.1 μg/mL.

As for `O=C(CC(c1ccccc1)c1ccccc1)N1CCN(C(c2ccccc2)c2ccccc2)CC1` [Compound 1, 1-(4-benzhydrylpiperazin-1-yl)-3,3-diphenylpropan-1-one], the Tmax in data set [1] is below 2 h. Also, in data set [2], the “AUC0-4 hr (dissolution)” value was determined as 8000 ng·h/mL and the “Tmax (dissolution)” value is 2 h. Besides, the “Cmax (dissolution)” value in data set [2] (37° C.) came to 2645 ng/mL.

The values are drawn from US8409560B2, “Solid dispersion formulations and methods of use thereof” (Zalicus Pharmaceuticals Ltd., priority 2011, dated 2013).
